Measurements taken from patent US10801065B2, “Methods of determining levels of exposure to radiation and uses thereof” (priority 2015, dated 2020).
Values joined by “and” are separate entries in the source; they are usually repeats but may differ in a detail not shown here. Equal values may be shown once.

What was measured:
Assay type in all cases: in vivo
[1] = system: HuCD34+ humanized NSG mice, 4 Gy to 4.5 Gy total body irradiation; assay: Peripheral blood CBC at euthanasia in irradiated humanized mice given amifostine; details: TBI + Amifostine
Protocol: Blood collection for CBCs (100 μL) was performed by retro-orbital bleeding after anesthesia in EDTA-coated tubes (BD Biosciences, San Jose, Calif.). CBCs were recorded with a Hemavet 950 FS hematology analyzer (Drew Scientific, Dallas, Tex.).
HuCD34^+ “humanized” NSG mice were obtained from Jackson Labs, Bar Harbor, Me. These mice were generated by irradiating each mouse at 1.4 Gy to deplete their bone marrow and injecting each mouse with CD34^+ human HSC. Each mouse was tested for engraftment of human CD45^+ cells and murine CD45^+ cells at 12 weeks following transplantation. Prior to the experiments described herein, the presence of human CD45^+ cells was confirmed in the peripheral blood and bone marrow from untreated control mice using an anti-human CD45 FITC antibody.
The HuCD34^+ mice were treated with saline or amifostine (200 mg/kg of body weight 45 min-1 hr before radiation exposure) and were subsequently treated with 4 Gy to 4.5 Gy of total body irradiation, or were left untreated. Following these treatments, total bone cellularity and the levels of serum miRNAs were determined in the mice. Both CD45 staining of peripheral blood and engraftment analysis of bone marrow was performed when animals became moribund (between 9-14 days after total body radiation) and were sacrificed. The mice were irradiated at approximately 12 weeks after initial assessment of engraftment.

lethally-irradiated mice = assay: Kaplan-Meier survival of mice given amifostine before lethal total body irradiation
Protocol: C57BL/6J male mice (10 weeks old) were obtained from Jackson Labs (Bar Harbor, Me.) and the mice were used in the experiments at an age of 12-13 weeks. Animals were exposed to total body irradiation in an irradiation pie cage (Braintree Scientific, Braintree, Mass.) at various doses. Irradiation was performed using a 137Cs source (Gamma Cell® 40 Exactor, Best Theratronics, Ottawa, Ontario).
Saline or amifostine was given to mice intraperitoneally at 250 mg/kg body weight 24 hours prior to 0 Gy- or 8 Gy-total body irradiation in a first set of experiments. In a second set of experiments, mice were left untreated or mice were administered saline or 200 mg/kg amifostine 45 minutes prior to 0 Gy- or 8.5 Gy-total body irradiation. Serum was collected from all mice at 24 hours after irradiation or a time point in the non-irradiated mice that would correspond to 24 hours after irradiation in the treated mice.
Validation with real-time qPCR: One-way ANOVA was used to confirm global significance. Dunnett's post-hoc testing procedure was used to compare miRNA levels in the irradiated+saline-group against three other experimental groups. Univariate comparisons were performed using the Student's t-test or the Student's t-test for paired samples. Pearson's correlation coefficient was used for correlation testing. Survival analysis was performed using the log-rank (Mantel-Cox) test.

[2] = system: HuCD34+ humanized NSG mice, 4 Gy to 4.5 Gy total body irradiation; assay: Bone marrow cellularity, human CD45 positive cells and CFU-Cs in irradiated humanized mice given amifostine; details: amifostine 200 mg/kg prior to 4.0 Gy or 4.5 Gy total body irradiation vs saline
Protocol: Bone marrow was harvested as per protocols described in Parmar et al. (Stem Cells 28:1186-1195, 2010). Briefly, animals were dissected to isolate the femurs and tibia from the mouse hind limb. The extracted bones were flushed with a 23-gauge needle using Hank's Balanced Salt Solution (HBSS, Life Technologies, Grand Island, N.Y.) supplemented with 2% fetal bovine serum (FBS) and 1% 10 mM HEPES (Life Technologies) to obtain bone marrow. The cells were then passed through an 18 gauge needle to obtain a single cell suspension. The bone marrow mononuclear cell count (BM-MNC) was determined by counting cells using 3% acetic acid with methylene blue solution (Stem Cell Technologies, Vancouver, British Columbia). For LKS (lineage, cKit, Sca-1) staining to visualize hematopoietic progenitor cells (HPCs) and hematopoietic stem cells (HSCs), whole bone marrow was stained with biotinylated anti-lineage cocktail (anti-Mac1, Gr-1, CD3e, B220, and Ter119), APC-conjugated anti-cKit (clone 2B8), and PECy7-conjugated anti Sca-1 (clone D7) antibodies. Following primary antibody staining, the cells were washed and incubated in PE-conjugated streptavidin secondary antibody to visualize lineage-positive cells. All primary and secondary antibodies were obtained from BD Biosciences (San Jose, Calif.). The samples were acquired using an LSR Fortessa instrument (Becton Dickinson, Franklin Lakes, N.J.) and data was analyzed using FlowJo software (TreeStar, Ashland, Oreg.).
To assess colony-forming ability, whole bone marrow isolated after flushing mouse femurs and tibiae was plated in 12-well plates at a density of 20,000 to 100,000 cells/well in methylcellulose medium (Methocult CF M3434, Stem Cell Technologies, Vancouver, British Columbia) containing recombinant murine IL-3, recombinant murine IL-6, and recombinant human erythropoietin. Cells from all samples were plated in triplicates and incubated at 37° C. in 5% CO2 for 7 days at which time hematopoietic colonies formed (colony-forming units in culture, CFU-Cs) were scored. […]

[3] = system: serum miRNAs miR-187-3p, miR-194-5p, miR-27a-3p, miR-30a-3p, miR-30c-5p; assay: Serum miRNA levels (qPCR) in mice given amifostine before total body irradiation; details: amifostine 250 mg/kg 24 hours prior to 0 Gy or 8 Gy-total body irradiation; sera 24 hours post-irradiation
Protocol: Peripheral blood was collected by retro-orbital bleeding after anesthesia. Up to 200 μL of blood was collected in DNAse/RNAse-free Eppendorf tubes and incubated at room temperature for 2 hours to allow clotting. Blood samples were then centrifuged in an Eppendorf 5415C centrifuge at 14000 RPM (15996 g) for 5 minutes at room temperature.
Total RNA was isolated from serum samples by using the miRCURY™ RNA Isolation Kit—Biofluids from 50 μL mouse serum as per the manufacturer's manual. […] Total RNA was eluted in 50 μL of RNAse-free H2O and stored at −80° C. Per the manufacturer's recommendations, input volumes for serum RNA were optimized for the cDNA synthesis reaction. cDNA was synthesized in 10 μL reactions using the Universal cDNA Synthesis Kit II and was diluted 50-fold in RNAse/DNAse-free H2O for use in quantitative PCR. The reagents for RNA extraction and cDNA synthesis were obtained from Exiqon (Vedbaek, Denmark).
Diluted cDNA was subjected to quantitative PCR analysis in Pick-N-Mix plates designed in a 96-well format. […] All reagents used for quantitative PCR were obtained from Exiqon (Vedbaek, Denmark). […]

NCCCNCCSP(=O)(O)O [amifostine]
HCT, CBC at euthanasia ([1]; group Avg): 10.93%
Hb, CBC at euthanasia ([1]; group Avg): 4.27 g/dL
PLT, CBC at euthanasia ([1]; group Avg): 104.33 K/uL
RBC, CBC at euthanasia ([1]; group Avg): 2.37 M/uL
WBC, CBC at euthanasia ([1]; group Avg): 1.22 K/uL
HCT, CBC at euthanasia ([1]; individual mice (# 8, 9, 13)): 17.00% and 11.00% and 4.80%
Hb, CBC at euthanasia ([1]; individual mice (# 8, 9, 13)): 4.80 g/dL (2×) and 3.20 g/dL
PLT, CBC at euthanasia ([1]; individual mice (# 8, 9, 13)): 213 K/uL and 44 K/uL and 56 K/uL
RBC, CBC at euthanasia ([1]; individual mice (# 8, 9, 13)): 2.55 M/uL and 1.65 M/uL and 2.92 M/uL
WBC, CBC at euthanasia ([1]; individual mice (# 8, 9, 13)): 1.28 K/uL and 1.19 K/uL and 1.20 K/uL
survival (lethally-irradiated mice; amifostine 200 mg/kg 45 minutes prior to 8.5 Gy-total body irradiation vs saline): prolonged survival
improvement in survival (lethally-irradiated mice; amifostine 250 mg/kg intraperitoneally 24 hours prior to 8 Gy-total body irradiation vs saline, n=8 per group, p=0.0452): 50%
number of CFU-Cs [2]: increase
number of human CD45 positive cells in the bone marrow [2]: increase
total bone marrow cellularity [2]: increase
serum miRNA signature response to treatment [3]: responded to amifostine treatment only in the context of lethal radiation
